Experiment [1] relates to adult male Sprague Dawley rats. The settings on record: U.S. Pat. No. 8,334,278, cited from earlier work.
For experiment [2], the system named is adult male Sprague Dawley rats. The note with it: cited from earlier work.
Experiment [3] deals with Wistar Kyoto (WKY) rats. The experiment is described as follows: Novel object recognition (NOR) test in WKY rats, chronic administration. The experiment is classed as in vivo, rat. The note with it: MAP4343 15 mg/kg, s.c., 24 days. As to the method:
Wistar Kyoto (WKY) rats are considered as a model of treatment-resistant depression, while Wistar (WI) rats are used as control strain of WKY rats. During this experiment both WI and WKY rats were administered with MAP4343 (15 mg/Kg), subcutaneously (s.c.) for 24 days. Behavioral tests were performed at during the last week of treatment, and rats were finally sacrificed for addressing neurogenesis in Gyrus dentate of hippocampus using histological experiments. Organization of this protocol is depicted in FIG. 7.
MAP4343 was diluted in sesame oil, and then administered subcutaneously (s.c.) at the dose of 15 mg/kg during 24 days. The vehicle group received only the sesame oil (1 ml/kg) in the similar conditions.
The NOR task is a test of recognition memory based on the spontaneous preference of rats for novelty. The applied procedure was based on that previously described by Ennaceur and Delacour (1988). NOR task was performed at D21 of the treatment period (see FIG. 7). In a first session (habituation, 5 min), each rat was familiarized with two identical objects placed in the border of the open-field area (70×100×70 cm). In a second session performed 1 h after (novel object recognition, 5 min), one of the two familiar objects was replaced by a novel object. […] Results are given as exploratory time for the novel object and the total exploratory time.

In experiment [4] the test system is tree shrews exposed to chronic psychosocial stress. The note with it: 4-week daily administration; cited from earlier work.
The test system of another experiment is Noradrenergic α1. The experiment is described as follows: CNS receptor binding assay, α1. The settings on record: MAP4343 10 μM; [3H] prazosin; rat cerebral cortex. The source says: (§1) MAP4343 has been screened for in vitro affinity to 80 different CNS neurotransmitters receptors using various validated binding assays.
For another experiment, the system named is GABA (non-selective). The experiment is described as follows: CNS receptor binding assay, GABA. The settings on record: MAP4343 10 μM; [3H] GABA; rat cerebral cortex.
Excerpt: as §1

For experiment [5], the system named is social-isolated adult male Sprague Dawley rats. The note with it: cited from earlier work.
The subject of another experiment is NMDA PCP site. The experiment is described as follows: CNS receptor binding assay, NMDA PCP site. The settings on record: MAP4343 10 μM; [3H] TCP; rat cerebral cortex.
Excerpt: as §1

A further experiment deals with MAP2. The experiment is described as follows: Binding (affinity) by displacement of PREG-3H.
The next experiment concerns PC12 cells. The note with it: cited from earlier work.
In experiment [6] the test system is Wistar Kyoto (WKY) rats. The experiment is described as follows: Elevated-plus maze (EPM) in WKY rats, acute treatment. In kind it is in vivo, rat. The note with it: MAP4343 10 mg/kg s.c., fluoxetine 10 mg/kg, ketamine 30 mg/kg i.p., FIG. 5D. The procedure:
After a 6-day period of acclimatization, all experimental groups received daily successive subcutaneous (250 μl per rat) and intraperitoneal (1 ml/kg) injections. WI rats received injection of vehicle (sesame oil+saline) while WKY rats were randomly assigned to […] experimental groups, as follow: KWY rats receiving only vehicle (sesame oil+saline) and WKY rats treated with MAP4343 (10 mg/kg, s.c.; rats received in parallel i.p. injections of saline), fluoxetine (10 mg/kg i.p., rats received in parallel s.c. injections of sesame oil) or ketamine (30 mg/kg, i.p.; rats received in parallel s.c. injections of sesame oil) (see FIG. 3).
After, a 6-day period of acclimatization, the acute phase of treatment started for 4 days during behavioral tests were performed (FIG. 3). All animals were injected 1 h 30 before the starting of behavioral test.
We used the elevated-plus maze (EPM) as an assay of anxiety-related behavior in rodents (Walf and Frye, 2007). […] The time spent in the open versus closed arms was blindly measured by two independent experimenters from the recorded video, and the open arm-index was calculated as follow: time in the open arms (sec)/[time in open arms (sec)+time in closed arms (sec)].

Molecules are shown by their SMILES. Like-named read-outs stand apart in the source and are kept apart here.

Regarding `CO[C@H]1CC[C@@]2(C)C(=CC[C@H]3[C@@H]4CC[C@H](C(C)=O)[C@@]4(C)CC[C@@H]32)C1` [MAP4343, 3β-methoxy-pregna-5-ene-20-one], the “memory retention in NOR” value in experiment [1] (naïve adult male Sprague Dawley rats) is “increases memory retention”. Besides, the “memory deficit in the NOR test” value in [1] (social-isolated adult male Sprague Dawley rats) is reported as “induces recovery of memory deficit”. Also, the “immobility in the forced swimming test” value in experiment [2] (naïve adult male Sprague Dawley rats, U.S. Pat. No. 8,334,278) is “decreases immobility”; in experiment [2] (social-isolated adult male Sprague Dawley rats, Bianchi and Baulieu, 2012) it was “decreased immobility”. Further, the “time spent with the novel object in NOR, change vs WKY receiving only vehicle” value in the experiment on Wistar Kyoto (WKY) rats [3] (FIG. 8B) is recorded as “+58%”. The “total exploratory time in NOR, change vs WKY receiving only vehicle” value with Wistar Kyoto (WKY) rats [3] (FIG. 8C) is recorded as “+41%”. The “hormone hypersecretion, hypothermia and sleep disturbances” value in experiment [4] is “prevent hormone hypersecretion, hypothermia and sleep disturbances”. Further, in [4], the stress-triggered avoidance behavior entry was “abolish stress-triggered avoidance behavior”. Moreover, the “% Inhibition of control specific binding” value with Noradrenergic α1 was 4%; with GABA (non-selective) it was 2%; with NMDA PCP site it was −10%. For the same compound, the “anxiety in the EPM test” value in experiment [5] (acute phase (2 days of daily injections)) is “not in the acute phase”; in experiment [5] (subchronic phase (8 days of daily injections)) it was “recovered increased anxiety”. Moreover, the Affinity with MAP2 was 100% of PREG. For the same compound, in the experiment on PC12 cells, the neurite extension result is “enhance neurite extension”. Also, the “open-arm (OA) index in EPM, change vs WKY receiving vehicle alone” value in the experiment with Wistar Kyoto (WKY) rats [6] is 165%.
